These results are taken from PMC11284787, “Ligand-Directed Labeling of the Adenosine A1 Receptor in Living Cells” (Journal of Medicinal Chemistry, 2024).

Molecules are shown by their SMILES.

One test deals with T1, NL-hA2AAR (Homo sapiens, UniProt P29274).
T1 construct: expressed in transfected cells; host or cells: HEK293T, transient transfection (FuGENE)
Kind of test: NanoBRET saturation ligand-binding assay, NL-hA2AAR. The following applies: HEK293T cells transiently expressing NL-hA2AAR, mean ± SEM; read-out: affinity values pKD, NL-hA2AAR (converted). As for the experimental part:
Probes 11 and 12 were further evaluated for their ability to bind the other three adenosine receptor subtypes (NL-A2AAR, NL-A2BAR, and NL-A3AR), and their ligand-binding properties were quantified in the NanoBRET saturation and inhibition binding assays, respectively (Table 1 and Figure 4). […]
plates (Nunc Lab-Tek, Thermo Fischer Scientific), pre-coated with Poly-D-Lysine, at 20,000 cells per well in DMEM/10% FCS. 24 h post seeding, cells were transiently transfected with human SNAP-A1. Transient transfections were carried out following manufacturer’s protocol: used FuGENE (Promega) HD at 3:1 ratio of reagent to cDNA with a total of 300 ng cDNA per well. Transfection solutions were made up in Gibco Opti-MEM (Thermo Fischer Scientific), incubated at RT for 5 min and added as 11 µL per well. Cells were incubated for additional 24 h at 37 OC, 5% CO2. Transient Transfection of NanoLuc-tagged human A 2AAR in HEK293T cell line was carried out as follows: 72 h prior to the experiment cells were removed from a confluent T75 flask and centrifuged. The pellet of cells was resuspended in 10 mL of fresh complete DMEM. […]
(§1) 37 °C for kinetic binding experiments. Emissions were read at 420 nm (80 nm bandpass; […]
(In general: In BRET a luciferase serves as donor, and the signal depends on an acceptor being close.)

A further test has as its system T2, rat NL-A1AR.
T2 construct: expressed in transfected cells
Kind of test: NanoBRET dissociation kinetics, rat NL-A1AR HEK293 cells. The class given is binding. Conditions: rat NL-A1AR HEK293 cells prelabeled with 250 nM, 10 μM DPCPX. The procedure:
Figure 3 Molecular pharmacology and biochemical characterization of 11 and 12. NanoBRET ligand-binding data were measured in HEK293 cells stably expressing the human NL-A1AR (A–C) or rat NL-A1AR (D–F). […] Data were normalized to maximal BRET signals in the absence of unlabeled competing ligands (total binding, TB). (C, F) NanoBRET dissociation kinetics experiments with 11 (SulfoCy5) performed in human and rat NL-A1AR HEK293T cells, respectively. Cells were treated with 250 nM 11 (SulfoCy5, lilac open circles) for 5 h and CA200645 (black open triangles) for 2 h. […] Each data point represents the combined mean ± SEM from n = 5 (A, C), n = 4 (B, D), and n = 3 (E, F) experiments, each one performed in triplicate. (G) HEK293G cells stably expressing TS-SNAP-A1AR were treated with 300 nM 11 or 130 nM 12 in serum-free media for 2 h at 37 °C and 5% CO2. For samples treated with compound 12, the labeling solution was removed and immediately replaced with 10 mL of serum-free media containing 1 μM Met-Tet-Cy5 and incubated at 37 °C and 5% CO2 for a further 15 min. Untreated cells were used as a control. TS-SNAP-A1AR was purified and separated on an SDS-PAGEgel gel, and direct Cy5 fluorescence was visualized using in-gel fluorescence. The gel shown is representative of three independent experiments. […]
as §1

T1 sequence (P29274 whole entry): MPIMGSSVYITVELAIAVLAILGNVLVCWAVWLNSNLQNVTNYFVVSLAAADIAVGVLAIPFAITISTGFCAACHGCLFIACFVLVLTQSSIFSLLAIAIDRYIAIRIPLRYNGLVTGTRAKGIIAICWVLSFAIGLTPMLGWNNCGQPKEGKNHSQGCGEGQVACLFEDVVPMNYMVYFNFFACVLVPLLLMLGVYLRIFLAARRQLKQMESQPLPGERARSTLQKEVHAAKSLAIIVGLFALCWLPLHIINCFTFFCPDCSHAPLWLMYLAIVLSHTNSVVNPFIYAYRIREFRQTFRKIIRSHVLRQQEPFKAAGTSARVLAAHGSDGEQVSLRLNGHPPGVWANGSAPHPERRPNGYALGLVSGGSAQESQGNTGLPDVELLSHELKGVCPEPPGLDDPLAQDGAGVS

`CCCCn1c(=O)c2[nH]c(C34CCC(C(=O)NCCNC(=O)CCNC(=O)c5ccc(OC(=O)CCCCC[N+]6=C(/C=C/C=C/C=C7/N(C)c8ccc(S(=O)(=O)O)cc8C7(C)C)C(C)(C)c7cc(S(=O)(=O)[O-])ccc76)c(F)c5)(CC3)CC4)nc2n(CCCC)c1=O` [Compound 11, 1-(6-(4-((3-((2-(4-(1,3-Dibutyl-2,6-dioxo-2,3,6,7-tetrahydro-1H-purin-8-yl)bicyclo[2.2.2]octane-1-carboxamido)ethyl)amino)-3-oxopropyl)carbamoyl)-2-fluorophenoxy)-6-oxohexyl)-3,3-dimethyl-2-((1E,3E)-5-((E)-1,3,3-trimethyl-5-sulfoindolin-2-ylidene)penta-1,3-dien-1-yl)-3H-indol-1-ium-5-sulfonate]: the Kd on NL-hA2AAR was 245 nM. The “ability to covalently transfer the fluorophore to the A1AR (dissociation experiment)” value in the test on rat NL-A1AR was “could be retained across species”.
